Results as given in patent US7939552B2, “Benzyloxypropylamine derivative” (Nippon Zoki Pharmaceutical Co., Ltd., priority 2005, dated 2011).
Structures can show the parent of a compound that is named as a salt.

How the values were obtained:
[1] = Pharmacokinetic test in blood by a single oral administration to guinea pigs; assay type: in vivo; details: male, Hartley, guinea pig, po, 100 mg/kg orally, plasma; for AUC(0-t): read-out: AUC 0-24 h; for Cmax: read-out: Cmax; for Tmax: read-out: Tmax; for half-life: read-out: t½ (converted)
Experimental: Male guinea pigs of a Hartley strain (SPF, Nippon SLC) were purchased and subjected to a preliminary breeding for one week and the normally grown ones were fasted for one night and used for the test. The compound of the present invention was suspended in 1 g/dL methyl cellulose solution and 100 mg/kg was orally administered in an administering dose of 5 mL/kg. After 0.5, 1, 2, 4, 8 and 24 hour(s) from the oral administration, about 0.4 mL of blood was collected from the vein of median of foreleg using a heparinized capillary. Plasma prepared by its centrifugation (at 12,000 rpm for 10 minutes) was stored at −80° C. until the measurement. Measurement of the concentration in blood was conducted by a UV-detecting HPLC method.

human NK1 receptor = target: T1, human NK1 receptor (Homo sapiens, UniProt P25103); assay: Human NK1 receptor binding assay (3H-Sar9-SP, hNK1-CHO cells); details: room temperature 60 minutes
T1 construct: expressed in transfected cells; host or cells: CHO cells (hNK1-CHO)
T1 sequence (P25103 whole entry): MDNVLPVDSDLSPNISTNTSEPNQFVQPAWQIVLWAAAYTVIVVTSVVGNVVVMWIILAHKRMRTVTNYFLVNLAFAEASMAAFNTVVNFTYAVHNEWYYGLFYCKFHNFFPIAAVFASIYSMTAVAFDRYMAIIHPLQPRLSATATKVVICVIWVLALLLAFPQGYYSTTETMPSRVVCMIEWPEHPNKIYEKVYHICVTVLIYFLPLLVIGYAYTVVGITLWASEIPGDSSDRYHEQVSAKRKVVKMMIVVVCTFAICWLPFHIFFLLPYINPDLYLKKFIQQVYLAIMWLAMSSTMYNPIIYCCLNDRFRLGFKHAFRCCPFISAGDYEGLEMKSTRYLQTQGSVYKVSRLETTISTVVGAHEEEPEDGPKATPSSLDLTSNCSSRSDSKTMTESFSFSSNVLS
Experimental: A supernatant liquid was removed from an hNK1-CHO cell incubation flask in a confluent state, trypsin (0.25%)-EDTA (1 mmol/L) (Gibco) was added thereto and the cells were exfoliated and recovered. After they were washed with a buffer A (pH 7.5; 50 mmol/L Tris hydrochloride 50 mmol/L, 150 mmol/L NaCl and 0.02% BSA) for one time (at […] for 5 minutes), cell numbers were adjusted and re-floated on a buffer for assay {a buffer A to which 40 μg/mL bacitracin (Sigma), 4 μg/mL leupeptin (Sigma), 4 μg/mL chymostatin (Sigma) and 4 μg/mL phosphoramidon (Sigma) were added}. The hNK1-CHO cells (100 μL) were placed in a tube (TPX-12, Maruemu) in which 300 μL of the buffer for assay was charged so as to make cells 10^5 per tube, 50 μL of a hot solution (^3H-Sar^9-SP, final concentration: […]) and 50 μL of a substance to be tested were added (a system of 500 μL), stirred and made to react at room temperature for 60 minutes. After completion of the reaction, it was filtered through a GF/B filter (25 mm diameter, Whatman) which was previously dipped in 0.1% polyethyleneimine p-70 (Wako Pure Chemical), washed with the buffer A (4 mL each for three times), placed in a vial and dried at 60° C. for one night. After drying, 10 mL of a scintillator (AL-1, toluene base, Dojindo) was added thereto and dpm was measured by a liquid scintillation counter (for 5 minutes/vial).
With regard to a nonspecific binding, it was defined as the dpm when 10 μmol/L of the substance P was added instead of the substance to be tested. The experiment was conducted in duplicate and at least three experiments were repeated. IC50 value was calculated using a probit method (statistic library II, Yukms).

Compound | IC50 (human NK1 receptor) [nM] | other results
CN(CC(COCc1cc(C(F)(F)F)cc(C(F)(F)F)c1)c1ccccc1)C(=O)CCN (centres unmarked) [Compound 102, N-[3-(3,5-Bis(trifluoromethyl)benzyloxy)-2-phenylpropyl]-N-methyl-3-aminopropionamide hydrochloride] | 35.5 | –
NCCC(=O)NCC(COCc1cc(C(F)(F)F)cc(C(F)(F)F)c1)c1ccc(F)cc1 (centres unmarked) [Compound 76, 3-Amino-N-[3-(3,5-bis(trifluoromethyl)benzyloxy)-2-(4-fluorophenyl)propyl]propionamide hydrochloride] | 21 | –
NCCCCC(=O)NCC(COCc1cc(C(F)(F)F)cc(C(F)(F)F)c1)c1ccccc1 (centres unmarked) [Compound 78, N-[3-(3,5-Bis(trifluoromethyl)benzyloxy)-2-phenylpropyl]-5-aminopentanoicamide hydrochloride] | 19 | –
CN(CC(COCc1cc(C(F)(F)F)cc(C(F)(F)F)c1)c1ccc(F)cc1)C(=O)c1ccncc1 (centres unmarked) [Compound 98, N-[3-(3,5-Bis(trifluoromethyl)benzyloxy)-2-(4-fluorophenyl)propyl]-N-methylisonicotinamide] | 27 | –
O=C(CN1CCC(C(=O)O)CC1)NCC(COCc1cc(C(F)(F)F)cc(C(F)(F)F)c1)c1ccccc1 (centres unmarked) [Compound 90, 1-{[3-(3,5-Bis(trifluoromethyl)benzyloxy)-2-phenylpropylcarbamoyl]methyl}piperidine-4-carboxylic acid] | 44 | –
CN1CCC(C(=O)N(C)CC(COCc2cc(C(F)(F)F)cc(C(F)(F)F)c2)c2ccccc2)CC1 (centres unmarked) [Compound 96, N-[3-(3,5-Bis(trifluoromethyl)benzyloxy)-2-phenylpropyl]-N-methyl-1-methylpiperidine-4-carboxamide hydrochloride] | 28.5 | –
CN(CC(COCc1cc(C(F)(F)F)cc(C(F)(F)F)c1)c1ccc(F)cc1)C(=O)C1CCNCC1 (centres unmarked) [Compound 95, N-[3-(3,5-Bis(trifluoromethyl)benzyloxy)-2-(4-fluorophenyl)propyl]-N-methylpiperidine-4-carboxamide hydrochloride] | 15.4 | –
N-[3-(3,5-Bis(trifluoromethyl)benzyloxy)-2-(4-fluorophenyl)propyl]-N-methylpiperidine-4-carboxamide hydrochloride [Compound 97] | 20.3 | –
NCCC(=O)NCC(COCc1cc(C(F)(F)F)cc(C(F)(F)F)c1)c1ccccc1 (centres unmarked) [Compound 74, 3-Amino-N-[3-(3,5-bis(trifluoromethyl)benzyloxy)-2-phenylpropyl]propionamide hydrochloride] | 33.6 | –
Cl.O=C(NCC(COCc1cc(C(F)(F)F)cc(C(F)(F)F)c1)c1ccccc1)C1CCNCC1 (centres unmarked) [Compound 4, N-[3-(3,5-Bis(trifluoromethyl)benzyloxy)-2-phenylpropyl]piperidine-4-carboxamide hydrochloride] | 29.3 | AUC(0-t) [1]: 28.2 µg·h/mL; Cmax [1]: 2000 ng/mL; Tmax [1]: 8 h
O=C(Cc1ccc[n+]([O-])c1)NCC(COCc1cc(C(F)(F)F)cc(C(F)(F)F)c1)c1ccccc1 (centres unmarked) [Compound 41, N-[3-(3,5-Bis(trifluoromethyl)benzyloxy)-2-phenylpropyl]-2-(1-oxypyridin-3-yl)acetamide] | 9.2 | –
CN(CC(COCc1cc(C(F)(F)F)cc(C(F)(F)F)c1)c1ccccc1)C(=O)CCCCN (centres unmarked) [Compound 106, 5-Aminopentanoic acid [3-(3,5-bis(trifluoromethyl)benzyloxy)-2-phenylpropyl]methylamide hydrochloride] | 30.3 | –
CN(CC(COCc1cc(C(F)(F)F)cc(C(F)(F)F)c1)c1ccccc1)C(=O)c1cc[n+]([O-])cc1 (centres unmarked) [Compound 99, N-[3-(3,5-Bis(trifluoromethyl)benzyloxy)-2-phenylpropyl]-N-methyl-1-oxyisonicotinamide] | 23.8 | –
O=C(CN1CCC(N2CCCCC2)CC1)NCC(COCc1cc(C(F)(F)F)cc(C(F)(F)F)c1)c1ccccc1 (centres unmarked) [Compound 91, N-[3-(3,5-Bis(trifluoromethyl)benzyloxy)-2-phenylpropyl]-2-[1,4′]bipiperidinyl-1′-ylacetamide dihydrochloride] | 43.5 | –
CN(CC(COCc1cc(C(F)(F)F)cc(C(F)(F)F)c1)c1ccc(F)cc1)C(=O)c1ccnc(O)c1 (centres unmarked) [Compound 100, N-[3-(3,5-Bis(trifluoromethyl)benzyloxy)-2-(4-fluorophenyl)propyl]-2-hydroxy-N-methylisonicotinamide] | 11.9 | –
CN(CC(COCc1cc(C(F)(F)F)cc(C(F)(F)F)c1)c1ccccc1)C(=O)C1CCNCC1 (centres unmarked) [Compound 93, N-[3-(3,5-Bis(trifluoromethyl)benzyloxy)-2-phenylpropyl]-N-methylpiperidine-4-carboxamide hydrochloride] | 42.2 | –
O=C(O)CN1CCC(C(=O)NCC(COCc2cc(C(F)(F)F)cc(C(F)(F)F)c2)c2ccccc2)CC1 (centres unmarked) [Compound 80, {4-[3-(3,5-Bis(trifluoromethyl)benzyloxy)-2-phenylpropylcarbamoyl]piperidin-1-yl}acetic acid hydrochloride] | 14.7 | –

Further compounds by falling IC50 (human NK1 receptor), results first:

IC50 (human NK1 receptor) [nM] | Compound | other results
9 | O=C(NCC(COCc1cc(C(F)(F)F)cc(C(F)(F)F)c1)c1ccc(F)cc1)c1cc[n+]([O-])cc1 (single isomer, unassigned; (+)) [(+)-Compound 21] | –
8.6 | NC1CCC(C(=O)NCC(COCc2cc(C(F)(F)F)cc(C(F)(F)F)c2)c2ccccc2)CC1 (centres unmarked) [Compound 88, 4-Aminocyclohexanecarboxylic acid [3-(3,5-bis(trifluoromethyl)benzyloxy)-2-phenylpropyl]amide hydrochloride] | –
8.5 | O=C(C=Cc1ccc[n+]([O-])c1)NCC(COCc1cc(C(F)(F)F)cc(C(F)(F)F)c1)c1ccccc1 (centres unmarked) [Compound 54, N-[3-(3,5-Bis(trifluoromethyl)benzyloxy)-2-phenylpropyl]-3-(1-oxypyridin-3-yl)acrylamide] | –
7.3 | O=C(Cc1cc[n+]([O-])cc1)NCC(COCc1cc(C(F)(F)F)cc(C(F)(F)F)c1)c1ccccc1 (centres unmarked) [Compound 39, N-[3-(3,5-Bis(trifluoromethyl)benzyloxy)-2-phenylpropyl]-2-(1-oxypyridin-4-yl)acetamide] | AUC(0-t) [1]: 379 µg·h/mL; Cmax [1]: 25700 ng/mL; Tmax [1]: 8 h; half-life [1]: 3.2 h
7.3 | O=C(Cc1cc[n+]([O-])cc1)NCC(COCc1cc(C(F)(F)F)cc(C(F)(F)F)c1)c1ccc(F)cc1 (centres unmarked) [Compound 40, N-[3-(3,5-Bis(trifluoromethyl)benzyloxy)-2-(4-fluorophenyl)propyl]-2-(1-oxypyridin-4-yl)acetamide] | AUC(0-t) [1]: 279 µg·h/mL; Cmax [1]: 22800 ng/mL; Tmax [1]: 4 h; half-life [1]: 4 h
6.5 | CN(CC(COCc1cc(C(F)(F)F)cc(C(F)(F)F)c1)c1ccc(F)cc1)C(=O)CCN (centres unmarked) [Compound 104, 3-Amino-N-[3-(3,5-bis(trifluoromethyl)benzyloxy)-2-(4-fluorophenyl)propyl]-N-methylpropionamide hydrochloride] | –
6.4 | O=C(NCC(COCc1cc(C(F)(F)F)cc(C(F)(F)F)c1)c1ccccc1)c1ccc[n+]([O-])c1 (centres unmarked) [Compound 22, N-[3-(3,5-Bis(trifluoromethyl)benzyloxy)-2-phenylpropyl]-1-oxynicotinamide] | AUC(0-t) [1]: 200 µg·h/mL; Cmax [1]: 18300 ng/mL; Tmax [1]: 2 h; half-life [1]: 2.6 h
6 | O=C(NCC(COCc1cc(C(F)(F)F)cc(C(F)(F)F)c1)c1ccccc1)NC1CCNCC1 (centres unmarked) [Compound 86, 1-[3-(3,5-Bis(trifluoromethyl)benzyloxy)-2-phenylpropyl]-3-piperidin-4-ylurea hydrochloride] | –
5.9 | C[n+]1ccc(C(=O)NCC(COCc2cc(C(F)(F)F)cc(C(F)(F)F)c2)c2ccccc2)cc1 (centres unmarked) [Compound 26, 4-[3-(3,5-Bis(trifluoromethyl)benzyloxy)-2-phenylpropylcarbamoyl]-1-methylpyridinium iodide] | –
5.8 | O=C(NCC(COCc1cc(C(F)(F)F)cc(C(F)(F)F)c1)c1ccccc1)c1cc[n+]([O-])cc1 (centres unmarked) [Compound 20, N-[3-(3,5-Bis(trifluoromethyl)benzyloxy)-2-phenylpropyl]-1-oxyisonicotinamide] | AUC(0-t) [1]: 87.3 µg·h/mL; Cmax [1]: 10900 ng/mL; Tmax [1]: 2 h; half-life [1]: 3.4 h
1.5 | O=C(NCC(COCc1cc(C(F)(F)F)cc(C(F)(F)F)c1)c1ccc(F)cc1)c1cc[n+]([O-])cc1 (single isomer, unassigned; (-)) [(−)-Compound 21] | –
